For test [1], the system named is Streptococcus pneumoniae. In words: Antibacterial activity against erythromycin-susceptible Streptococcus pneumoniae ATCC 49619.
Test [2] has as its system Streptococcus pneumoniae. In words: Antibacterial activity against erythromycin-resistant Streptococcus pneumoniae B1 encoded by erm gene.
Test [3] deals with Streptococcus pneumoniae. Briefly: Antibacterial activity against erythromycin-resistant Streptococcus pneumoniae A22072 encoded by mef gene.
In test [4] the test system is Streptococcus pneumoniae. In words: Antibacterial activity against erythromycin-resistant Streptococcus pneumoniae AB11 encoded by erm and mef gene.

Converted amounts (≈) assume the structure as drawn.

Turning to `CC[C@H]1OC(=O)[C@H](C)[C@@H](O[C@H]2C[C@@](C)(OC)[C@@H](OC(=O)NCCc3ccccc3Cl)[C@H](C)O2)[C@H](C)[C@@H](O[C@@H]2O[C@H](C)C[C@H](N(C)C)[C@H]2O)[C@@](C)(O)C[C@@H](C)CN(C)[C@H](C)[C@@H](OC(=O)NCc2ccccc2)[C@]1(C)O`, the MIC with Streptococcus pneumoniae [1] was less than 0.03 µg/mL; against Streptococcus pneumoniae [2], 0.25 µg/mL (≈ 0.235 µM); against Streptococcus pneumoniae [3] it was 0.25 µg/mL (≈ 0.235 µM); in the test with Streptococcus pneumoniae [4], 4 µg/mL (≈ 3.76 µM).
As to `CCCCNC(=O)O[C@H]1[C@H](C)O[C@@H](O[C@H]2[C@H](C)[C@@H](O[C@@H]3O[C@H](C)C[C@H](N(C)C)[C@H]3O)[C@@](C)(O)C[C@@H](C)CN(C)[C@H](C)[C@H]3OC(=O)O[C@]3(C)[C@@H](CC)OC(=O)[C@@H]2C)C[C@@]1(C)OC`, the minimal inhibitory concentration (MIC) in the test with Streptococcus pneumoniae [1] was determined as 0.12 µg/mL (≈ 0.137 µM); against Streptococcus pneumoniae [2], 8 µg/mL (≈ 9.15 µM); against Streptococcus pneumoniae [3], 1 µg/mL (≈ 1.14 µM); with Streptococcus pneumoniae [4], 16 µg/mL (≈ 18.3 µM).
Taken in the same sequence, the figures for `CC[C@H]1OC(=O)[C@H](C)[C@@H](O[C@H]2C[C@@](C)(OC)[C@@H](OC(=O)NC(C)C)[C@H](C)O2)[C@H](C)[C@@H](O[C@@H]2O[C@H](C)C[C@H](N(C)C)[C@H]2O)[C@@](C)(O)C[C@@H](C)CN(C)[C@H](C)[C@@H](O)[C@]1(C)O` were 0.12 µg/mL (≈ 0.144 µM), 128 µg/mL (≈ 153 µM), 8 µg/mL (≈ 9.59 µM) and 256 µg/mL (≈ 307 µM).
The matching figures for `CC[C@H]1OC(=O)[C@H](C)[C@@H](O[C@H]2C[C@@](C)(OC)[C@@H](O)[C@H](C)O2)[C@H](C)[C@@H](O[C@@H]2O[C@H](C)C[C@H](N(C)C)[C@H]2O)[C@](C)(O)C[C@@H](C)CN(C)[C@H](C)[C@@H](O)[C@]1(C)O` [AZITHROMYCIN]: less than 0.03 µg/mL, 128 µg/mL (≈ 171 µM), 4 µg/mL (≈ 5.34 µM) and 256 µg/mL (≈ 342 µM).
Taken in the same sequence, the figures for `CC[C@H]1OC(=O)[C@H](C)[C@@H](O[C@H]2C[C@@](C)(OC)[C@@H](OC(=O)NCc3ccc(F)cc3)[C@H](C)O2)[C@H](C)[C@@H](O[C@@H]2O[C@H](C)C[C@H](N(C)C)[C@H]2O)[C@@](C)(O)C[C@@H](C)CN(C)[C@H](C)[C@@H](OC(=O)NCCc2ccccc2)[C@]1(C)O` were less than 0.03 µg/mL, 0.25 µg/mL (≈ 0.239 µM), 0.06 µg/mL (≈ 0.0573 µM) and 32 µg/mL (≈ 30.6 µM).
On to `CC[C@H]1OC(=O)[C@H](C)[C@@H](O[C@H]2C[C@@](C)(OC)[C@@H](OC(=O)NCCc3ccccc3)[C@H](C)O2)[C@H](C)[C@@H](O[C@@H]2O[C@H](C)C[C@H](N(C)C)[C@H]2O)[C@@](C)(O)C[C@@H](C)CN(C)[C@H](C)[C@@H](O)[C@]1(C)O`, for which the MIC against Streptococcus pneumoniae [1] is 0.06 µg/mL (≈ 0.067 µM); in the test on Streptococcus pneumoniae [2], 8 µg/mL (≈ 8.93 µM); against Streptococcus pneumoniae [3], 1 µg/mL (≈ 1.12 µM); with Streptococcus pneumoniae [4], 32 µg/mL (≈ 35.7 µM).
The matching figures for `CCCNC(=O)O[C@H]1[C@H](C)O[C@@H](O[C@H]2[C@H](C)[C@@H](O[C@@H]3O[C@H](C)C[C@H](N(C)C)[C@H]3O)[C@@](C)(O)C[C@@H](C)CN(C)[C@H](C)[C@@H](O)[C@](C)(O)[C@@H](CC)OC(=O)[C@@H]2C)C[C@@]1(C)OC`: 0.12 µg/mL (≈ 0.144 µM), 64 µg/mL (≈ 76.7 µM), 4 µg/mL (≈ 4.8 µM) and 64 µg/mL (≈ 76.7 µM).
For `CC[C@H]1OC(=O)[C@H](C)[C@@H](O[C@H]2C[C@@](C)(OC)[C@@H](OC(=O)NC3CCCCC3)[C@H](C)O2)[C@H](C)[C@@H](O[C@@H]2O[C@H](C)C[C@H](N(C)C)[C@H]2O)[C@@](C)(O)C[C@@H](C)CN(C)[C@H](C)[C@@H](O)[C@]1(C)O`, the MIC against Streptococcus pneumoniae [1] is 0.12 µg/mL (≈ 0.137 µM); in the test with Streptococcus pneumoniae [2] it was 32 µg/mL (≈ 36.6 µM); in the test with Streptococcus pneumoniae [3], 8 µg/mL (≈ 9.15 µM); with Streptococcus pneumoniae [4], 128 µg/mL (≈ 146 µM).
The matching figures for `CCCCNC(=O)O[C@@H]1[C@@H](C)N(C)C[C@H](C)C[C@](C)(O)[C@H](O[C@@H]2O[C@H](C)C[C@H](N(C)C)[C@H]2O)[C@@H](C)[C@H](O[C@H]2C[C@@](C)(OC)[C@@H](OC(=O)NCc3ccc(OC)cc3)[C@H](C)O2)[C@@H](C)C(=O)O[C@H](CC)[C@@]1(C)O`: 0.06 µg/mL (≈ 0.0593 µM), 0.5 µg/mL (≈ 0.494 µM), 1 µg/mL (≈ 0.989 µM) and 128 µg/mL (≈ 127 µM).
In the case of `CC[C@H]1OC(=O)[C@H](C)[C@@H](O[C@H]2C[C@@](C)(OC)[C@@H](OC(=O)NCCc3ccccc3Cl)[C@H](C)O2)[C@H](C)[C@@H](O[C@@H]2O[C@H](C)C[C@H](N(C)C)[C@H]2O)[C@@](C)(O)C[C@@H](C)CN(C)[C@H](C)[C@@H](OC(=O)NCc2ccc(F)cc2)[C@]1(C)O`, the MIC in the test with Streptococcus pneumoniae [1] came out at 0.06 µg/mL (≈ 0.0555 µM); in the test on Streptococcus pneumoniae [2], 0.25 µg/mL (≈ 0.231 µM); in the test on Streptococcus pneumoniae [3], 0.25 µg/mL (≈ 0.231 µM); against Streptococcus pneumoniae [4] it was 4 µg/mL (≈ 3.7 µM).
For `CC[C@H]1OC(=O)[C@H](C)[C@@H](O[C@H]2C[C@@](C)(OC)[C@@H](OC(=O)NCCc3ccccc3Cl)[C@H](C)O2)[C@H](C)[C@@H](O[C@@H]2O[C@H](C)C[C@H](N(C)C)[C@H]2O)[C@@](C)(O)C[C@@H](C)CN(C)[C@H](C)[C@@H](O)[C@]1(C)O`, the MIC against Streptococcus pneumoniae [1] is less than 0.03 µg/mL; against Streptococcus pneumoniae [2] it was 8 µg/mL (≈ 8.6 µM); in the test with Streptococcus pneumoniae [3], 1 µg/mL (≈ 1.07 µM); in the test with Streptococcus pneumoniae [4] it was 8 µg/mL (≈ 8.6 µM).
Consider `CC[C@H]1OC(=O)[C@H](C)[C@@H](O[C@H]2C[C@@](C)(OC)[C@@H](OC(=O)NCc3ccc(OC)cc3)[C@H](C)O2)[C@H](C)[C@@H](O[C@@H]2O[C@H](C)C[C@H](N(C)C)[C@H]2O)[C@@](C)(O)C[C@@H](C)CN(C)[C@H](C)[C@H]2OC(=O)O[C@@]21C`, for which the MIC in the test on Streptococcus pneumoniae [1] was less than 0.03 µg/mL; against Streptococcus pneumoniae [2], 8 µg/mL (≈ 8.53 µM); in the test with Streptococcus pneumoniae [3], 0.25 µg/mL (≈ 0.266 µM); against Streptococcus pneumoniae [4] it was 16 µg/mL (≈ 17.1 µM).
Taken in the same sequence, the figures for `CCCCCNC(=O)O[C@H]1[C@H](C)O[C@@H](O[C@H]2[C@H](C)[C@@H](O[C@@H]3O[C@H](C)C[C@H](N(C)C)[C@H]3O)[C@@](C)(O)C[C@@H](C)CN(C)[C@H](C)[C@@H](O)[C@](C)(O)[C@@H](CC)OC(=O)[C@@H]2C)C[C@@]1(C)OC` were less than 0.03 µg/mL, 8 µg/mL (≈ 9.28 µM), 0.5 µg/mL (≈ 0.58 µM) and 32 µg/mL (≈ 37.1 µM).
On to `CC[C@H]1OC(=O)[C@H](C)[C@@H](O[C@H]2C[C@@](C)(OC)[C@@H](OC(=O)NCCc3ccccc3Cl)[C@H](C)O2)[C@H](C)[C@@H](O[C@@H]2O[C@H](C)C[C@H](N(C)C)[C@H]2O)[C@@](C)(O)C[C@@H](C)CN(C)[C@H](C)[C@@H](OC(=O)NCCc2ccc(O)cc2)[C@]1(C)O`, for which the MIC in the test with Streptococcus pneumoniae [1] was less than 0.03 µg/mL; against Streptococcus pneumoniae [2] it was 0.25 µg/mL (≈ 0.229 µM); in the test on Streptococcus pneumoniae [3], 0.06 µg/mL (≈ 0.0549 µM); with Streptococcus pneumoniae [4], 16 µg/mL (≈ 14.6 µM).
The matching figures for `CC[C@H]1OC(=O)[C@H](C)[C@@H](O[C@H]2C[C@@](C)(OC)[C@@H](OC(=O)NCCc3ccc4c(c3)OCO4)[C@H](C)O2)[C@H](C)[C@@H](O[C@@H]2O[C@H](C)C[C@H](N(C)C)[C@H]2O)[C@@](C)(O)C[C@@H](C)CN(C)C(C)[C@H]2OC(=O)O[C@@]21C` (some centres undefined): less than 0.03 µg/mL, 4 µg/mL (≈ 4.14 µM), 0.06 µg/mL (≈ 0.0621 µM) and 2 µg/mL (≈ 2.07 µM).
The matching figures for `CC[C@H]1OC(=O)[C@H](C)[C@@H](O[C@H]2C[C@@](C)(OC)[C@@H](OC(=O)NCc3ccc(OC)cc3)[C@H](C)O2)[C@H](C)[C@@H](O[C@@H]2O[C@H](C)C[C@H](N(C)C)[C@H]2O)[C@@](C)(O)C[C@@H](C)CN(C)[C@H](C)[C@@H](O)[C@]1(C)O`: 0.12 µg/mL (≈ 0.132 µM), 64 µg/mL (≈ 70.2 µM), 4 µg/mL (≈ 4.39 µM) and 32 µg/mL (≈ 35.1 µM).

Source of the values: ChEMBL document CHEMBL1154057, “Synthesis and antibacterial activity of novel 15-membered macrolide derivatives: 4''-carbamate, 11,12-cyclic carbonate-4''-carbamate and 11,4''-di-O-arylcarbamoyl analogs of azithromycin” (2009).
